# According to patent US20030083469A1, “Allosteric control of nuclear hormone receptors” (The Salk Institute for Biological Studies, priority 1995, published 2003):
# Legend:
# [1] = target: T1, GAL-Nurrl + RXR-LBD (Homo sapiens, UniProt P19793); test: Transient transfection of GAL-Nurrl chimera with RXR LBD; assay type: cell-based, mouse Nurrl, human RXRα; settings: RXR-LBD co-expressed with GAL-Nurrl; 100 nM
# T1 construct: or the human RXRα LBD (Glu 203 -Thr 462); expressed in transfected cells; host or cells: CV-1
# T1 sequence (Q06219 318-598 partner limits assumed, one chain of several): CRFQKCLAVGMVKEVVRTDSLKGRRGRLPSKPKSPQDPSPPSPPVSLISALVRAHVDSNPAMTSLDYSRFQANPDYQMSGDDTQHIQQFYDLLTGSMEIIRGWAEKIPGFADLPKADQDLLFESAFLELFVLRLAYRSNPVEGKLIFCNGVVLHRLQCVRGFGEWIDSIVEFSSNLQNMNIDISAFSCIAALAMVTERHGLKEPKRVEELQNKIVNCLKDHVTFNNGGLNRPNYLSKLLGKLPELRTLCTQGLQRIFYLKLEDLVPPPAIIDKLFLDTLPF
# Experimental: CV-1 cells were grown in Dulbecco's Modified Eagle's medium supplemented with 10% resin-charcoal stripped (Samuels et al., Endocrinology 105:80-85 (1979)) fetal bovine serum, 50 U/ml penicillin G and 50 μg/ml streptomycin sulfate (DMEM-FBS) at 37° C. in 5% CO2. One day prior to transfection, cells were plated to 50-80% confluence using phenol-red free DMEM-FBS. Cells were transfected by lipofection using N-{2-(2,3)-dioleoyloxy)propyl-N,N,N-trimethyl ammonium methyl sulfate} according to the manufacturer's instructions (DOTAP, Boehringer Mannheim). […] Cells were harvested and assayed for luciferase and β-galactosidase activity. All points were performed in triplicate in each experiment and varied by less than 10%. Each experiment was repeated three or more times with similar results.
# Since RXR serves as a silent partner in the T3R and RAR pathways, it was next investigated whether RXR could serve as an active component in other complexes. To search for such complexes, the LBD of a number of nuclear receptors were fused to the GAL4 DBD, and tested to determine whether the RXR LBD could confer LG69 responsiveness upon these GAL-LBD chimeras. […] Normalized luciferase activity was determined and plotted as fold-activation relative to untreated cells.
# [2] = target: T2, Nurrl-RXR heterodimer complex (Homo sapiens, UniProt P19793); test: Transient transfection of full-length Nurrl and RXR on NBRE x3 TK-LUC; assay type: cell-based, mouse Nurrl, human RXRα
# T2 construct: transient transfection analysis of full-length Nurrl and/or RXR; expressed in transfected cells; host or cells: CV-1
# T2 sequence (P19793 whole entry): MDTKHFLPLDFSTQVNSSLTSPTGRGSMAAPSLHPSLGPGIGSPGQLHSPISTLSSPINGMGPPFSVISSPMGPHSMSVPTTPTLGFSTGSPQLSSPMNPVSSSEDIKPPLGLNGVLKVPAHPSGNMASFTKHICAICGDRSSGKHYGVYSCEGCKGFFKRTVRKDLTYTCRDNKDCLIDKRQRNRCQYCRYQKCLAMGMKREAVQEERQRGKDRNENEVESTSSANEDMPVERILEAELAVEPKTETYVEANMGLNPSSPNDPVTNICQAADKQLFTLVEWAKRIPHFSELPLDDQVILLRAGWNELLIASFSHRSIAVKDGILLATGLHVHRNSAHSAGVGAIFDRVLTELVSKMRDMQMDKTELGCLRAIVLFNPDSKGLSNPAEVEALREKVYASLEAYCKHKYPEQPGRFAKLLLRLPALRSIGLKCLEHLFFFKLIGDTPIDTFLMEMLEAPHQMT
# T2 sequence (Q06219 whole entry partner): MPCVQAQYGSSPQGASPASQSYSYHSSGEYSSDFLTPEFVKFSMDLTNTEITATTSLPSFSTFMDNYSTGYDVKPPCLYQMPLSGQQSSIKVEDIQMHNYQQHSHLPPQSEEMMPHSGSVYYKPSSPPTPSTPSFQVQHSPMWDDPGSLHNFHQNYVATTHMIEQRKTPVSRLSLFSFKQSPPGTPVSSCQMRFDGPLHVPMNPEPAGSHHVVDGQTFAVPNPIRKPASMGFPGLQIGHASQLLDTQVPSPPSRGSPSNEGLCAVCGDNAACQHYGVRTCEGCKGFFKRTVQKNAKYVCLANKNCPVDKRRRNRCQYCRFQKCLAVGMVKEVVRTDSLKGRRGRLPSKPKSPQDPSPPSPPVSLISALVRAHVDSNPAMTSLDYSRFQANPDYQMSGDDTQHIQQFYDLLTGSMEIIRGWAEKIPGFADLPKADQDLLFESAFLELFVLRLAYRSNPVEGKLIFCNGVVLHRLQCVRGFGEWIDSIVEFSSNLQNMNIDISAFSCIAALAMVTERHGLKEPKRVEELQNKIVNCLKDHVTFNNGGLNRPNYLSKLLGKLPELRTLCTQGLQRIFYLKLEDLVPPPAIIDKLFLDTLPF
# Experimental: One day prior to transfection, cells were plated to 50-80% confluence using phenol-red free DMEM-FBS. Cells were transfected by lipofection using N-{2-(2,3)-dioleoyloxy)propyl-N,N,N-trimethyl ammonium methyl sulfate} according to the manufacturer's instructions (DOTAP, Boehringer Mannheim).
# Thus, CV-1 cells were tranfected with NBRE×3 TK-LUC (300 ng/10^5 cells) , CMX-βgal (500 ng/10^5 cells), alone or with CMX-Nurrl (100 ng/10^5 cells) and CMX-hRXRα (100 ng/10^5 cells) as indicated in FIG. 7B. Following transfection, cells were treated with or without 100 nM LG69. Normalized luciferase activity was determined and plotted as reporter activity.
# Using sub-optimal amounts of RXR-expression vector, the CRBPII reporter was compared with a 3-copy NBRE reporter as follows. Cells were transfected as described with respect to FIG. 7B, but with a 5-fold lower amount of CMX-hRXRα (20 ng/10^5 cells). CRBPII TK-LUC (300 ng/10^5 cells) was used where indicated.
# [3] = target: T3, GAL-RXR + RAR LBD (Homo sapiens, UniProt P10276+P19793); test: Transient transfection analysis of GAL-RXR LBD in the presence of RAR LBD; assay type: cell-based
# T3 construct: human RXRα LBD (Glu 203 - Thr 462); HRARα LBD (Glu 156 - PRO 462); expressed in transfected cells; host or cells: CV-1
# T3 sequence (P19793 203-462): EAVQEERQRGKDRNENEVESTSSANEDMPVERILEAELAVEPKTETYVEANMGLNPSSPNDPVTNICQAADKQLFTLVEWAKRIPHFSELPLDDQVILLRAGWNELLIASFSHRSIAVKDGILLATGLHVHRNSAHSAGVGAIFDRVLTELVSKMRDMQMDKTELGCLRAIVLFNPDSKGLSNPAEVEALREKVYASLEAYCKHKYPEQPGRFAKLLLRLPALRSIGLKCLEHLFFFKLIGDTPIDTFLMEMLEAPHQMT
# T3 sequence (P10276 156-462): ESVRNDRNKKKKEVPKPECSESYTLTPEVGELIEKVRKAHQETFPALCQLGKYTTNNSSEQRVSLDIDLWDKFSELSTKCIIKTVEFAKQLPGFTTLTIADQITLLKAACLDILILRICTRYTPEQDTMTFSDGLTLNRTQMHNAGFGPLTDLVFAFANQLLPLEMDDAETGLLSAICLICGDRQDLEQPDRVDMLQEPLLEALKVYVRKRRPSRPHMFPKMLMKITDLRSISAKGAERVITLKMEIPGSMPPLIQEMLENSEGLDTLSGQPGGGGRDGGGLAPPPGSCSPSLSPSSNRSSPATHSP
# Experimental: CV-1 cells were grown in Dulbecco's Modified Eagle's medium supplemented with 10% resin-charcoal stripped (Samuels et al., Endocrinology 105:80-85 (1979)) fetal bovine serum, 50 U/ml penicillin G and 50 μg/ml streptomycin sulfate (DMEM-FBS) at 37° C. in 5% CO2. One day prior to transfection, cells were plated to 50-80% confluence using phenol-red free DMEM-FBS. Cells were transfected by lipofection using N-{2-(2,3)-dioleoyloxy)propyl-N,N,N-trimethyl ammonium methyl sulfate} according to the manufacturer's instructions (DOTAP, Boehringer Mannheim). […]. All points were performed in triplicate in each experiment and varied by less than 10%. Each experiment was repeated three or more times with similar results.
# Thus, a chimeric protein was constructed containing the yeast GAL4 DBD linked to the RXR LBD (GAL-RXR). The ability of this RXR-chimera to respond to LG69 was initially examined in the presence of truncated receptors containing the LBDs of T3R or RAR. Thus, transient transfection analysis of GAL-RXR LBD was carried out in the presence of T3R, RAR or VDR LBDs. Reporter constructs contained 4 copies of the UASG cloned upstream of the TK-LUC reporter. […] Normalized luciferase activity was determined and plotted as reporter activity (see FIG. 3).
# […]. Normalized luciferase activity was determined and plotted as fold-activation relative to untreated cells.
structure (smiles),measurement,setting,value
"CC=C(c1ccc(C(=O)O)cc1)c1cc2c(cc1C)C(C)(C)CCC2(C)C [LG69, 4-{1-(3,5,5,8,8-pentamethyl-5,6,7,8-tetrahydro-2-napthalenyl)-1-propenyl}benzoic acid]",responsiveness to ligand,[1],strong responsiveness
same,responsiveness of the Nurrl-RXR complex,"[2]; Nurrl and RXR co-expressed, NBRE reporter",strongly responsive
same,response of Nurrl-RXR on NBRE reporter,[2]; limiting RXR (20 ng/10^5 cells),potent response
same,transcriptional activity with Am580+LG69 over that seen with AM580 alone,"[3]; GAL-RXR + RAR LBD, 50 nM AM580+100 nM LG69",increased transcriptional activity
same,fold-responsiveness of GAL-RXR to LG69,"[3]; unliganded RAR LBD present, 100 nM LG69",strongly suppressed
